Reference: patent US7179824B2, “Arthropodicidal anthranilamides” (E. I. du Pont de Nemours and Company, priority 2001, dated 2007)

With `Cc1cc(Cl)cc(C(=O)NC(C)C)c1N(C(=O)c1cc(C(F)(F)F)n[nH]1)c1ncccc1Cl` [Compound 4, N-[4-chloro-2-methyl-6-[[(1-methylethyl)amino]carbonyl]phenyl]-N-(3-chloro-2-pyridinyl)-3-(trifluoromethyl)-1H-pyrazole-5-carboxamide] the melting point was 173 to 176 °C.
